Assay results from patent US20210267203A1, “PESTICIDALLY ACTIVE AZOLE-AMIDE COMPOUNDS” (SYNGENTA PARTICIPATIONS AG, priority 2018, published 2021).

Experiments:
Assay type in all cases: in vivo
[1] = test system: Myzus persicae (Green Peach Aphid); experiment: Example B6: Myzus persicae (green peach aphid), feeding/contact activity; conditions: 144 h, application rate 200 ppm, 6 days after infestation
Protocol: Example B6: Myzus persicae (Green Peach Aphid):Feeding/Contact Activity
Sunflower leaf discs were placed onto agar in a 24-well microtiter plate and sprayed with aqueous test solutions prepared from 10,000 ppm DMSO stock solutions. After drying, the leaf discs were infested with an aphid population of mixed ages. The samples were assessed for mortality 6 days after infestation.

[2] = test system: Myzus persicae (Green Peach Aphid); experiment: Example B13: activity against Myzus persicae (green peach aphid), 96-well sucrose solution; conditions: 120 h, application rate 50 ppm, 5 days after infestation
Source text: Example B13: Activity Against Myzus persicae (Green Peach Aphid)
Test compounds prepared from 10,000 ppm DMSO stock solutions were applied by a liquid handling robot into 96-well microtiter plates and mixed with a sucrose solution. Parafilm was stretched over the 96-well microtiter plate and a plastic stencil with 96 holes was placed onto the plate. Aphids were sieved into the wells directly onto the Parafilm. The infested plates were closed with a gel blotting card and a second plastic stencil and then turned upside down. The samples were assessed for mortality 5 days after infestation.

[3] = test system: Spodoptera littoralis (Egyptian Cotton Leaf Worm); experiment: Example B9: Spodoptera littoralis (Egyptian cotton leaf worm), cotton leaf discs sprayed, L1 larvae; conditions: foliar, 72 h, application rate 200 ppm, 3 days after infestation
Protocol: Example B9: Spodoptera littoralis (Egyptian Cotton Leaf Worm)
Cotton leaf discs were placed onto agar in 24-well microtiter plates and sprayed with aqueous test solutions prepared from 10,000 ppm DMSO stock solutions. After drying the leaf discs were infested with five L1 larvae. The samples were assessed for mortality, anti-feeding effect, and growth inhibition in comparison to untreated samples 3 days after infestation. Control of Spodoptera littoralis by a test sample is given when at least one of the three categories (i.e. mortality, anti-feedant effect, and growth inhibition) is higher than the untreated sample.

[4] = test system: Plutella xylostella (Diamondback Moth); experiment: Example B14: activity against Plutella xylostella (diamondback moth), 96-well artificial diet; conditions: 216 h, application rate 500 ppm, 9 days after infestation
Protocol: Example B14: Activity Against Plutella xylostella (Diamondback Moth)
96-well microtiter plates containing artificial diet were treated with aqueous test solutions, prepared from 10,000 ppm DMSO stock solutions, by a liquid handling robot. After drying, eggs (30 per well) were infested onto a netted lid which was suspended above the diet. The eggs hatch and L1 larvae move down to the diet. The samples were assessed for mortality 9 days after infestation.
The following compounds gave an effect of at least 80% average mortality at an application rate of 500 ppm: […]

[5] = test system: Diabrotica Balteata (Corn Root Worm); experiment: Example B1: Diabrotica balteata (corn root worm), maize sprouts sprayed, L2 larvae; conditions: 96 h, application rate 200 ppm, 4 days after infestation, read-out: effect in at least one of the two categories (mortality or growth inhibition)
Protocol: Example B1: Diabrotica Balteata (Corn Root Worm)
Maize sprouts placed onto an agar layer in 24-well microtiter plates were treated with aqueous test solutions prepared from 10,000 ppm DMSO stock solutions by spraying. After drying, the plates were infested with L2 larvae (6 to 10 per well). The samples were assessed for mortality and growth inhibition in comparison to untreated samples 4 days after infestation.
(§1) The following compounds gave an effect of at least 80% in at least one of the two categories (mortality or growth inhibition) at an application rate of 200 ppm: […]

[6] = test system: Euschistus heros (Neotropical Brown Stink Bug); experiment: Example B2: Euschistus heros (neotropical brown stink bug), soybean leaves sprayed, N2 nymphs; conditions: 120 h, application rate 200 ppm, 5 days after infestation, read-out: effect in at least one of the two categories (mortality or growth inhibition)
Protocol: Example B2: Euschistus heros (Neotropical Brown Stink Bug)
Soybean leaves on agar in 24-well microtiter plates were sprayed with aqueous test solutions prepared from 10,000 ppm DMSO stock solutions. After drying the leaves were infested with N2 nymphs. The samples were assessed for mortality and growth inhibition in comparison to untreated samples 5 days after infestation.
as §1

[7] = test system: Myzus persicae (Green Peach Aphid); experiment: Example B8: Myzus persicae (green peach aphid), intrinsic activity; conditions: 120 h, test rate 12 ppm, sucrose solution, 24-well, 5 days after infestation
Source text: Example B8: Myzus persicae (Green Peach Aphid), Intrinsic Activity
Test compounds prepared from 10,000 ppm DMSO stock solutions were applied by pipette into 24-well microtiter plates and mixed with sucrose solution. The plates were closed with a stretched Parafilm. A plastic stencil with 24 holes was placed onto the plate and infested pea seedlings were placed directly on the Parafilm. The infested plate was closed with a gel blotting paper and another plastic stencil and then turned upside down. The samples were assessed for mortality 5 days after infestation.

[8] = test system: Plutella xylostella (Diamond Back Moth); experiment: Example B5: Plutella xylostella (diamond back moth), artificial diet, 24-well, eggs; conditions: 192 h, application rate 200 ppm, 8 days after infestation, read-out: effect in at least one of the two categories (mortality or growth inhibition)
Protocol: Example B5: Plutella xylostella (Diamond Back Moth)
24-well microtiter plates with artificial diet were treated with aqueous test solutions prepared from 10,000 ppm DMSO stock solutions by pipetting. After drying, Plutella eggs were pipetted through a plastic stencil onto a gel blotting paper and the plate was closed with it. The samples were assessed for mortality and growth inhibition in comparison to untreated samples 8 days after infestation. The following compounds gave an effect of at least 80% in at least one of the two categories (mortality or growth inhibition) at an application rate of 200 ppm: […]

[9] = test system: Chilo suppressalis (Striped Rice Stemborer); experiment: Example B4: Chilo suppressalis (striped rice stemborer), artificial diet, L2 larvae; conditions: 144 h, application rate 200 ppm, 6 days after infestation
Protocol: Example B4: Chilo suppressalis (Striped Rice Stemborer)
24-well microtiter plates with artificial diet were treated with aqueous test solutions prepared from 10,000 ppm DMSO stock solutions by pipetting. After drying, the plates were infested with L2 larvae (6-8 per well). The samples were assessed for mortality, anti-feeding effect, and growth inhibition in comparison to untreated samples 6 days after infestation. Control of Chilo suppressalis by a test sample is given when at least one of the categories (i.e. mortality, anti-feedant effect, and growth inhibition) is higher than the untreated sample.

CC(NC(=O)c1cc(C2CC2)cc(C(F)(F)F)c1)c1ncnn1-c1ncccn1 (centres unmarked) [P24, 3-cyclopropyl-N-[1-(2-pyrimidin-2-yl-1,2,4-triazol-3-yl)ethyl]-5-(trifluoromethyl)benzamide]
≥ 80%: mortality at 200 ppm [1] | mortality at 50 ppm [2] | percent control (mortality, anti-feedant effect or growth inhibition) at 200 ppm [3] | mortality at 500 ppm [4] | percent effect (mortality or growth inhibition) at 200 ppm [5] | percent effect (mortality or growth inhibition) at 200 ppm [6] | mortality at 12 ppm [7] | percent effect (mortality or growth inhibition) at 200 ppm [8]

CC(NC(=O)c1cc(OCC(F)F)cc(C2CC2)c1)c1ncnn1-c1ncccn1 (centres unmarked) [P61, 3-cyclopropyl-5-(2,2-difluoroethoxy)-N-[1-(2-pyrimidin-2-yl-1,2,4-triazol-3-yl)ethyl]benzamide]
≥ 80%: mortality at 200 ppm [1] | percent control (mortality, anti-feedant effect or growth inhibition) at 200 ppm [9] | percent control (mortality, anti-feedant effect or growth inhibition) at 200 ppm [3] | percent effect (mortality or growth inhibition) at 200 ppm [6] | mortality at 12 ppm [7] | percent effect (mortality or growth inhibition) at 200 ppm [8]

CC(NC(=O)c1cc(-c2ccc(C(F)(F)F)cc2)cc(C(F)(F)F)c1)c1ncnn1-c1ncccn1 (centres unmarked) [P67, N-[1-(2-pyrimidin-2-yl-1,2,4-triazol-3-yl)ethyl]-3-(trifluoromethyl)-5-[4-(trifluoromethyl)phenyl]benzamide]
≥ 80%: percent control (mortality, anti-feedant effect or growth inhibition) at 200 ppm [9] | mortality at 50 ppm [2] | percent effect (mortality or growth inhibition) at 200 ppm [5] | percent effect (mortality or growth inhibition) at 200 ppm [8]

CC(NC(=O)c1cc(-c2cccc(C(F)(F)F)c2)cc(C(F)(F)F)c1)c1ncnn1-c1ncccn1 (centres unmarked) [P68, N-[1-(2-pyrimidin-2-yl-1,2,4-triazol-3-yl)ethyl]-3-(trifluoromethyl)-5-[3-(trifluoromethyl)phenyl]benzamide]
≥ 80%: percent control (mortality, anti-feedant effect or growth inhibition) at 200 ppm [9] | mortality at 50 ppm [2] | percent control (mortality, anti-feedant effect or growth inhibition) at 200 ppm [3] | percent effect (mortality or growth inhibition) at 200 ppm [5] | percent effect (mortality or growth inhibition) at 200 ppm [8]

CC(NC(=O)c1cc(-c2ccccc2C(F)(F)F)cc(C(F)(F)F)c1)c1ncnn1-c1ncccn1 (centres unmarked) [P69, N-[1-(2-pyrimidin-2-yl-1,2,4-triazol-3-yl)ethyl]-3-(trifluoromethyl)-5-[2-(trifluoromethyl)phenyl]benzamide]
≥ 80%: percent control (mortality, anti-feedant effect or growth inhibition) at 200 ppm [9] | mortality at 50 ppm [2] | percent control (mortality, anti-feedant effect or growth inhibition) at 200 ppm [3] | percent effect (mortality or growth inhibition) at 200 ppm [5] | percent effect (mortality or growth inhibition) at 200 ppm [8]

CC(NC(=O)c1cc(C(F)(F)F)cc(C(C)(C)C#N)c1)c1ncnn1-c1ccccn1 (centres unmarked) [P75, 3-(1-cyano-1-methyl-ethyl)-N-[1-[2-(2-pyridyl)-1,2,4-triazol-3-yl]ethyl]-5-(trifluoromethyl)benzamide]
≥ 80%: percent control (mortality, anti-feedant effect or growth inhibition) at 200 ppm [9] | percent control (mortality, anti-feedant effect or growth inhibition) at 200 ppm [3] | percent effect (mortality or growth inhibition) at 200 ppm [5] | mortality at 12 ppm [7] | percent effect (mortality or growth inhibition) at 200 ppm [8]

Cc1nc(C(C)NC(=O)c2cc(C(F)(F)F)cc(C(C)(C)C#N)c2)n(-c2ncc(Br)cn2)n1 (centres unmarked) [P77, N-[1-[2-(5-bromopyrimidin-2-yl)-5-methyl-1,2,4-triazol-3-yl]ethyl]-3-(1-cyano-1-methyl-ethyl)-5-(trifluoromethyl)benzamide]
≥ 80%: percent control (mortality, anti-feedant effect or growth inhibition) at 200 ppm [9] | percent control (mortality, anti-feedant effect or growth inhibition) at 200 ppm [3] | percent effect (mortality or growth inhibition) at 200 ppm [5] | percent effect (mortality or growth inhibition) at 200 ppm [6] | mortality at 12 ppm [7] | percent effect (mortality or growth inhibition) at 200 ppm [8]

Cc1nc(C(C)NC(=O)c2cc(C3CC3)cc(C(F)(F)F)c2)n(-c2ncc(Br)cn2)n1 (centres unmarked) [P80, N-[1-[2-(5-bromopyrimidin-2-yl)-5-methyl-1,2,4-triazol-3-yl]ethyl]-3-cyclopropyl-5-(trifluoromethyl)benzamide]
≥ 80%: percent control (mortality, anti-feedant effect or growth inhibition) at 200 ppm [9] | percent control (mortality, anti-feedant effect or growth inhibition) at 200 ppm [3] | percent effect (mortality or growth inhibition) at 200 ppm [5] | percent effect (mortality or growth inhibition) at 200 ppm [6] | percent effect (mortality or growth inhibition) at 200 ppm [8]

CC(NC(=O)c1cc(C2CC2)cc(C(F)(F)F)c1)c1ncnn1-c1ncc(Br)cn1 (centres unmarked) [P81, N-[1-[2-(5-bromopyrimidin-2-yl)-1,2,4-triazol-3-yl]ethyl]-3-cyclopropyl-5-(trifluoromethyl)benzamide]
≥ 80%: percent control (mortality, anti-feedant effect or growth inhibition) at 200 ppm [9] | percent control (mortality, anti-feedant effect or growth inhibition) at 200 ppm [3] | percent effect (mortality or growth inhibition) at 200 ppm [5] | percent effect (mortality or growth inhibition) at 200 ppm [6] | percent effect (mortality or growth inhibition) at 200 ppm [8]

Cc1nc(C(C)NC(=O)c2cc(C3CC3)cc(C(F)(F)F)c2)n(-c2ncccn2)n1 (centres unmarked) [P86, 3-cyclopropyl-N-[1-(5-methyl-2-pyrimidin-2-yl-1,2,4-triazol-3-yl)ethyl]-5-(trifluoromethyl)benzamide]
≥ 80%: percent control (mortality, anti-feedant effect or growth inhibition) at 200 ppm [9] | percent control (mortality, anti-feedant effect or growth inhibition) at 200 ppm [3] | percent effect (mortality or growth inhibition) at 200 ppm [5] | percent effect (mortality or growth inhibition) at 200 ppm [6] | mortality at 12 ppm [7] | percent effect (mortality or growth inhibition) at 200 ppm [8]

CC(NC(=O)c1cc(C(F)(F)F)cc(C2(C)CC2(F)F)c1)c1ncnn1-c1ncccn1 (centres unmarked) [P88, 3-(2,2-difluoro-1-methyl-cyclopropyl)-N-[1-(2-pyrimidin-2-yl-1,2,4-triazol-3-yl)ethyl]-5-(trifluoromethyl)benzamide]
≥ 80%: percent control (mortality, anti-feedant effect or growth inhibition) at 200 ppm [9] | mortality at 50 ppm [2] | percent control (mortality, anti-feedant effect or growth inhibition) at 200 ppm [3] | percent effect (mortality or growth inhibition) at 200 ppm [5] | percent effect (mortality or growth inhibition) at 200 ppm [6] | mortality at 12 ppm [7] | percent effect (mortality or growth inhibition) at 200 ppm [8]
